Tested on in the first series: not listed separately
The series can be described thus: logP determination by HPLC (EEC Directive 79/831 Annex V. A8). In kind it is physicochemical. Particulars: gradient method, acetonitrile/0,1% aqueous phosphoric acid. Here is the method: The logP values were determined in accordance with EEC Directive 79/831 Annex V. A8 by HPLC (Gradient method, acetonitrile/0,1% aqueous phosphoric acid)
Take `Cc1noc(C)c1S(=O)(=O)n1c(C)c(Br)c(Br)c1C#N` [Example 1, 3,4-dibromo-1-[(3,5-dimethyl-4-isoxazolyl)-sulfonyl]-5-methyl-1H-pyrrole-2-carbonitrile]: the chromatographic logP was found to be 3.62. Turning to `Cc1noc(C)c1S(=O)(=O)n1c(Br)c(Br)c(Br)c1C#N` [Example 3], the chromatographic logP worked out at 3.58.

The molecule `Cc1noc(C)c1S(=O)(=O)n1cc(Cl)c(Cl)c1C#N` [Example 11] gave a chromatographic logP of 3.13.

The subject of another series is Phytophthora infestans.
Assay: not given
In kind it is in vivo. The conditions noted are these: tomato plants, protective spray, application rate 50 g/ha, evaluation three days after inoculation; 100% = no infection.
For `Cc1noc(C)c1S(=O)(=O)n1c(Br)c(Br)c(Br)c1C#N` [drawing 9], the Efficacy in % is reported as 98%. Turning to `Cc1noc(C)c1S(=O)(=O)n1cc(Cl)c(Cl)c1C#N` [drawing 10], the Efficacy in % is given as 95%.

Turning to `Cc1noc(C)c1S(=O)(=O)n1cc(Cl)c(Cl)c1C#N` [drawing 11], the Efficacy in % came out at 94%.

By chromatographic logP is commonly meant lipophilicity estimated from chromatographic retention. High values mean higher lipophilicity, low ones lower lipophilicity.

(Values after patent US20040077880A1 (priority 2000, published 2004).)
